Patent US20090247559A1 (Exelixis, Inc., priority 2007, published 2009)

Experiments:
[1] = biological target: PIM (PIM-1, PIM-2, and/or PIM-3); experiment: PIM-1, PIM-2 and PIM-3 inhibition, biochemical chemiluminescence assays (Kinase Glo, IC50 determination); settings: Table 1 activity class; PIM refers to PIM-1, PIM-2, and/or PIM-3; read-out: PIM IC50 (Activity B)
CK2 = CK2 (Homo sapiens, UniProt P68400); experiment: CK2 inhibition, biochemical chemiluminescence holoenzyme assay (Kinase Glo, IC50 determination); settings: Table 1 activity class; symbol given only if active; read-out: CK2 IC50 (Activity C)
CK2, sequence (P68400 whole entry): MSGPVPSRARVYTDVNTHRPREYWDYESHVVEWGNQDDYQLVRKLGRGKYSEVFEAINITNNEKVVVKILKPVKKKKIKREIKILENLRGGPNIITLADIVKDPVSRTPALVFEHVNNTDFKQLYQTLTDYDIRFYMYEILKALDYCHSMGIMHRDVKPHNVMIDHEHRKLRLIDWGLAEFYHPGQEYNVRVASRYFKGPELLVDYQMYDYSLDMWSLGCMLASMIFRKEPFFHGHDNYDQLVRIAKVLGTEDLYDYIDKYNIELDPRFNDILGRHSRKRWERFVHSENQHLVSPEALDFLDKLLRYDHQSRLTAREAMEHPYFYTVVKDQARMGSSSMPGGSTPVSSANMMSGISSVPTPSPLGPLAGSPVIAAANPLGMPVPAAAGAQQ
CK2, sequence (P67870 whole entry partner): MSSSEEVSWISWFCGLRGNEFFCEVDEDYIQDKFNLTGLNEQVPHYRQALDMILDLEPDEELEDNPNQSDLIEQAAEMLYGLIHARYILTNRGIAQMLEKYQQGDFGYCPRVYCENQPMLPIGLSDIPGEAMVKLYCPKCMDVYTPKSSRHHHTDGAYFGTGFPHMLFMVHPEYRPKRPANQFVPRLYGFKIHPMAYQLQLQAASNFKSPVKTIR
Procedure, shortened: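 Holoenzyme CK2 assay; compounds pre-incubated with substrate and enzyme, then reacted 150 min at 24-27° C. Remaining ATP measured as luminescence with Kinase Glo, and IC50 derived from the signal.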

Structure (SMILES)	IC50 [1] [µM]	IC50 (CK2) [µM]
CC(=O)Nc1ccc(C(=O)Nc2ccc(Cl)c(-c3nc4c(oc5ccc(Br)cc54)c(=O)[nH]3)c2)cc1 [Compound 356, 4-(acetylamino)-N-[3-(8-bromo-4-oxo-3,4-dihydro[1]benzofuro[3,2-d]pyrimidin-2-yl)-4-chlorophenyl]benzamide]	< 10	< 10
CN(C)Cc1ccc(-c2nc3c(oc4ccc(Br)cc43)c(=O)[nH]2)cc1 [Compound 358, 8-Bromo-2-{4-[(dimethylamino)methyl]phenyl}[1]benzofuro[3,2-d]pyrimidin-4(3H)-one]	< 10	< 10
O=c1[nH]c(-c2ccc(OCC3CNCCO3)cc2)nc2c1oc1ccc(Br)cc12 (centres unmarked) [Compound 359, 8-Bromo-2-{4-[(morpholin-2-ylmethyl)oxy]phenyl}[1]benzofuro[3,2-d]pyrimidin-4(3H)-one]	< 10	< 10
O=C(Nc1ccc(-c2nc3c(oc4ccc(Br)cc43)c(=O)[nH]2)cc1)c1ccncc1 [Compound 360, N-[4-(8-bromo-4-oxo-3,4-dihydro[1]benzofuro[3,2-d]pyrimidin-2-yl)phenyl]pyridine-4-carboxamide]	< 10	< 10
O=C(Nc1ccc(Cl)c(-c2nc3c(oc4ccc(Br)cc43)c(=O)[nH]2)c1)C1CCOC1 (centres unmarked) [Compound 361, N-[3-(8-bromo-4-oxo-3,4-dihydro[1]benzofuro[3,2-d]pyrimidin-2-yl)-4-chlorophenyl]tetrahydrofuran-3-carboxamide]	< 10	< 10
CC(=O)N[C@H]1CCN(Cc2nc3c(oc4ccc(Br)cc43)c(=O)[nH]2)C1 [Compound 365, N-{(3S)-1-[(8-bromo-4-oxo-3,4-dihydro[1]benzofuro[3,2-d]pyrimidin-2-yl)methyl]pyrrolidin-3-yl}acetamide]	< 10	< 10
O=C(Nc1ccc(Cl)c(-c2nc3c(oc4ccc(Br)cc43)c(=O)[nH]2)c1)c1ccccc1 [Compound 371, N-[3-(8-bromo-4-oxo-3,4-dihydro[1]benzofuro[3,2-d]pyrimidin-2-yl)-4-chlorophenyl]benzamide]	< 10	< 10
O=C(Nc1ccc(Cl)c(-c2nc3c(oc4ccc(Br)cc43)c(=O)[nH]2)c1)c1ccno1 [Compound 372, N-[3-(8-bromo-4-oxo-3,4-dihydro[1]benzofuro[3,2-d]pyrimidin-2-yl)-4-chlorophenyl]isoxazole-5-carboxamide]	< 10	< 10
NC[C@H]1CC[C@H](c2nc3c(oc4ccc(Br)cc43)c(=O)[nH]2)CC1 [Compound 376, 2-[trans-4-(Aminomethyl)cyclohexyl]-8-bromo[1]benzofuro[3,2-d]pyrimidin-4(3H)-one]	< 10	< 10
CNCc1ccc(-c2nc3c(oc4ccc(Br)cc43)c(=O)[nH]2)cc1 [Compound 382, 8-bromo-2-{4-[(methylamino)methyl]phenyl}[1]benzofuro[3,2-d]pyrimidin-4(3H)-one]	< 10	< 10
O=C(Nc1ccc(-c2nc3c(oc4ccc(Br)cc43)c(=O)[nH]2)c(Cl)c1)c1ccc(-n2cccn2)nc1 [Compound 396, N-[4-(8-bromo-4-oxo-3,4-dihydro[1]benzofuro[3,2-d]pyrimidin-2-yl)-3-chlorophenyl]-6-(1H-pyrazol-1-yl)pyridine-3-carboxamide]	< 10	< 10
O=C(Nc1ccc(-c2nc3c(oc4ccc(Br)cc43)c(=O)[nH]2)c(Cl)c1)c1cnc2ccccc2n1 [Compound 397, N-[4-(8-bromo-4-oxo-3,4-dihydro[1]benzofuro[3,2-d]pyrimidin-2-yl)-3-chlorophenyl]quinoxaline-2-carboxamide]	< 10	< 10
O=c1[nH]c(CN2CCC[C@@H](O)C2)nc2c1oc1ccc(Br)cc12 [Compound 402, 8-bromo-2-{[(3R)-3-hydroxypiperidin-1-yl]methyl}[1]benzofuro[3,2-d]pyrimidin-4(3H)-one]	< 10	< 10
CC(O)CN(Cc1nc2c(oc3ccc(Br)cc32)c(=O)[nH]1)CC(C)O (centres unmarked) [Compound 403, 2-{[bis(2-hydroxypropyl)amino]methyl}-8-bromo[1]benzofuro[3,2-d]pyrimidin-4(3H)-one]	< 10	< 10
O=C(Nc1ccc(-c2nc3c(oc4ccc(Br)cc43)c(=O)[nH]2)c(Cl)c1)c1ccc2cccnc2n1 [Compound 405, N-[4-(8-bromo-4-oxo-3,4-dihydro[1]benzofuro[3,2-d]pyrimidin-2-yl)-3-chlorophenyl]-1,8-naphthyridine-2-carboxamide]	< 10	< 10

Results, then the compound that gave them:

IC50 [1] [µM]	IC50 (CK2) [µM]	Structure (SMILES)
< 10	< 10	O=C(NCc1ccncc1)C1CCN(Cc2nc3c(oc4ccc(Br)cc43)c(=O)[nH]2)C1 (centres unmarked) [Compound 325, 1-[(8-bromo-4-oxo-3,4-dihydro[1]benzofuro[3,2-d]pyrimidin-2-yl)methyl]-N-(pyridin-4-ylmethyl)pyrrolidine-3-carboxamide]
< 10	< 10	O=C(Nc1ccc(Cl)c(-c2nc3c(oc4ccc(Br)cc43)c(=O)[nH]2)c1)c1ccnc(Cl)c1 [Compound 326, N-[3-(8-bromo-4-oxo-3,4-dihydro[1]benzofuro[3,2-d]pyrimidin-2-yl)-4-chlorophenyl]-2-chloropyridine-4-carboxamide]
< 10	< 10	O=C(Nc1ccc(Cl)c(-c2nc3c(oc4ccc(Br)cc43)c(=O)[nH]2)c1)c1cncnc1 [Compound 329, N-[3-(8-bromo-4-oxo-3,4-dihydro[1]benzofuro[3,2-d]pyrimidin-2-yl)-4-chlorophenyl]pyrimidine-5-carboxamide]
< 10	< 10	COC(=O)c1ccc(C(=O)Nc2ccc(-c3nc4c(oc5ccc(Br)cc54)c(=O)[nH]3)c(Cl)c2)nc1 [Compound 334, methyl 6-({[4-(8-bromo-4-oxo-3,4-dihydro[1]benzofuro[3,2-d]pyrimidin-2-yl)-3-chlorophenyl]amino}carbonyl)pyridine-3-carboxylate]
< 10	< 10	COc1cc(C(=O)Nc2ccc(-c3nc4c(oc5ccc(Br)cc54)c(=O)[nH]3)c(Cl)c2)ccn1 [Compound 335, N-[4-(8-bromo-4-oxo-3,4-dihydro[1]benzofuro[3,2-d]pyrimidin-2-yl)-3-chlorophenyl]-2-(methyloxy)pyridine-4-carboxamide]
< 10	< 10	O=C(Nc1ccc(-c2nc3c(oc4ccc(Br)cc43)c(=O)[nH]2)c(Cl)c1)c1ccc(Br)cn1 [Compound 336, 5-bromo-N-[4-(8-bromo-4-oxo-3,4-dihydro[1]benzofuro[3,2-d]pyrimidin-2-yl)-3-chlorophenyl]pyridine-2-carboxamide]
< 10	< 10	COc1cc(C(=O)Nc2ccc(Cl)c(-c3nc4c(oc5ccc(Br)cc54)c(=O)[nH]3)c2)ccn1 [Compound 337, N-[3-(8-bromo-4-oxo-3,4-dihydro[1]benzofuro[3,2-d]pyrimidin-2-yl)-4-chlorophenyl]-2-(methyloxy)pyridine-4-carboxamide]
< 10	< 10	O=C(Nc1ccc(-c2nc3c(oc4ccc(Br)cc43)c(=O)[nH]2)c(Cl)c1)c1ccc(Cl)cn1 [Compound 339, N-[4-(8-bromo-4-oxo-3,4-dihydro[1]benzofuro[3,2-d]pyrimidin-2-yl)-3-chlorophenyl]-5-chloropyridine-2-carboxamide]
< 10	< 10	O=C(Nc1ccc(Cl)c(-c2nc3c(oc4ccc(Br)cc43)c(=O)[nH]2)c1)c1ccc(Cl)cn1 [Compound 340, N-[3-(8-bromo-4-oxo-3,4-dihydro[1]benzofuro[3,2-d]pyrimidin-2-yl)-4-chlorophenyl]-5-chloropyridine-2-carboxamide]
< 10	< 10	O=C(Nc1ccc(-c2nc3c(oc4ccc(Br)cc43)c(=O)[nH]2)c(Cl)c1)c1ccoc1 [Compound 341, N-[4-(8-bromo-4-oxo-3,4-dihydro[1]benzofuro[3,2-d]pyrimidin-2-yl)-3-chlorophenyl]furan-3-carboxamide]
< 10	< 10	O=C(Nc1ccc(Cl)c(-c2nc3c(oc4ccc(Br)cc43)c(=O)[nH]2)c1)c1ccoc1 [Compound 342, N-[3-(8-bromo-4-oxo-3,4-dihydro[1]benzofuro[3,2-d]pyrimidin-2-yl)-4-chlorophenyl]furan-3-carboxamide]
< 10	< 10	O=C(Nc1ccc(-c2nc3c(oc4ccc(Br)cc43)c(=O)[nH]2)c(Cl)c1)c1ccc(CO)cn1 [Compound 345, N-[4-(8-bromo-4-oxo-3,4-dihydro[1]benzofuro[3,2-d]pyrimidin-2-yl)-3-chlorophenyl]-5-(hydroxymethyl)pyridine-2-carboxamide]
< 10	< 10	Cn1nc(OC2CCNCC2)cc1-c1nc2c(oc3ccc(Br)cc32)c(=O)[nH]1 [Compound 351, 8-Bromo-2-[1-methyl-3-(piperidin-4-yloxy)-1H-pyrazol-5-yl][1]benzofuro[3,2-d]pyrimidin-4(3H)-one]
< 10	< 10	NCc1nc(-c2nc3c(oc4ccc(Br)cc43)c(=O)[nH]2)cs1 [Compound 352, 2-[2-(Aminomethyl)-1,3-thiazol-4-yl]-8-bromo[1]benzofuro[3,2-d]pyrimidin-4(3H)-one]
< 10	< 10	Nc1ccc(-c2nc3c(oc4ccc(Br)cc43)c(=O)[nH]2)cc1 [Compound 354, 2-(4-Aminophenyl)-8-bromo[1]benzofuro[3,2-d]pyrimidin-4(3H)-one]
< 10	< 10	Nc1cccc(-c2nc3c(oc4ccc(Br)cc43)c(=O)[nH]2)c1 [Compound 355, 2-(3-Aminophenyl)-8-bromo[1]benzofuro[3,2-d]pyrimidin-4(3H)-one]
